Where a SMILES comes first, the peptide text is derived from it.
Test system: CAIA in BALB/c mice
Assay: Arthritis severity score, collagen antibody-induced arthritis (CAIA)
Format: in vivo, mouse
Experimental: The CAIA model was established in BALB/c mice (8–10 weeks old) as described previously. On Day 0, the mice received an i.p. injection of 2 mg of anti-collagen II mAb cocktail (α-CII, Chondrex, Inc., Redmond, WA, USA). On Day 3, the mice received an i.p. injection of 30 µg of LPS [Escherichia coli (E. coli) O111:B4; Sigma-Aldrich, St. Louis, MO, USA] to activate inflammation and synchronize arthritis onset. The mice were randomized to the control vehicle (n = 5 or n = 7–10) or experimental groups (n = 5 or n = 7–10). Therapeutic agents [P2-1 peptide (1.0 or 2.0 mg/kg) or pCTS-L-neutralizing mAb2 (1.0, 2.0, or 4.0 mg/kg)] were administered i.p. daily, either prophylactically from–Day 2 or therapeutically from Day 6 post-α-CII challenge. Arthritis severity was scored daily via a clinical scoring system [0–4 per paw: 0 = normal; 1 = mild redness and swelling in a single joint type (ankle, wrist, or individual digit); 2 = moderate redness and swelling affecting two joint types; 3 = severe redness and swelling across all 3 joint types; 4 = maximal redness and swelling of the entire paw that obscured the joint definition].
On Day 0, the mice recei ved an i.p. injection of 2 mg of anti-collagen II m Ab cocktail (α-CII, Chondrex, Inc., Redmond, WA). […]

CCCC[C@H](NC(=O)[C@H](Cc1c[nH]cn1)NC(=O)[C@@H](NC(=O)[C@H](CCCCN)NC(=O)[C@@H](N)[C@@H](C)O)C(C)C)C(=O)N[C@@H](CCCCN)C(=O)N[C@@H](CO)C(=O)N[C@@H](Cc1ccccc1)C(=O)N[C@@H](CC(C)C)C(=O)N[C@@H](C)C(=O)N[C@@H](Cc1ccccc1)C(=O)N[C@@H](CCC(N)=O)C(=O)N[C@H](C(=O)N[C@@H](CCCCN)C(=O)N[C@H](C(=O)O)[C@@H](C)O)[C@@H](C)O [P2-1] (HELM PEPTIDE1{T.K.V.H.[Nle].K.S.F.L.A.F.Q.T.K.T}$$$$V2.0; N-terminus and C-terminus assumed)
arthritis severity, in words (P2-1 1.0 or 2.0 mg/kg i.p. daily from Day 6 (therapeutic)): dose-dependently and significantly attenuated CAIA-induced arthritis severity | arthritis severity, in words (P2-1 prophylactic, from Day -2, significant by Day 7): significantly reduced arthritis severity

From article PMC12914960, “Repurposing a detrimental antibody epitope as targeted therapeutics for sepsis and rheumatoid arthritis” (Military Medical Research, 2026)
